Consider seven molecules from patent US9518994B2, “Method for diagnosing and monitoring schizophrenia and tauopathies” (Ramot at Tel Aviv University, priority 2010, dated 2016).

In one test the test system is phosphorylated tau. Particulars: 12-month-old mice, intranasal ~0.07 mg/kg/day for 3 months; cited from earlier work.
Test [1] has as its system gestational day 8.0 mouse embryos. The note with it: cited from earlier work.
In test [2] the test system is schizophrenia-related cognitive impairment. Particulars: 5 mg once daily and 15 mg twice daily vs placebo, 56 patients; cited from earlier work.
Test [3] concerns Cortical neurons co-cultured with PEE astrocytes. Particulars: cited from earlier work.
The subject of another test is astrocytes or neurons. The note with it: cited from earlier work.
The test system of the next test is amnestic MCI. Particulars: 15 mg twice daily, intranasal, vs placebo; cited from earlier work.
The subject of test [4] is known cell surface receptors. Kind of test: Screening NAP on receptor panels. It is filed as binding. On the procedure: Fluorescent NAP was found inside cells, in the vicinity of microtubules when it was incubated with cells at 4° C. and at low pH (conditions that exclude receptor-mediated endocytocis) (I. Divinski et al. J Biol Chem 279, 28531-28538 (2004)). Furthermore, NAP activity is independent of its chirality (D. E. Brenneman et al. J Pharmacol Exp Ther 309, 1190-1197 (2004)) and NAP shares sequence similarities with protein sequences that have membrane permeability properties (I. Divinski et al. J Biol Chem 279, 28531-28538 (2004)).

The test system of another test is tau transgenic mice. Particulars: daily intranasal treatment over several months; cited from earlier work.
The next test deals with cancer cell division. The note with it: unlike paclitaxel; cited from earlier work.
The next test relates to ADNP+/- mice. Particulars: cited from earlier work.
The test system of the next test is anti-ADNP (NAP) antibody. Particulars: incubation of antibody with excess NAP peptide; cited from earlier work.
Test [5] relates to primary neuronal cell cultures. Particulars: cited from earlier work.
The subject of test [6] is cerebellar granule neurons. The note with it: cited from earlier work.
Another test concerns STOP+/- mice. Particulars: daily nasal application; cited from earlier work.
In a further test the test system is P19 cells. Kind of test: P19 cell neuro-differentiation, Q-PCR of differentiation markers. The note with it: eight days differentiation, 1 μM RA; FIG. 2. It counts as cell-based, mouse. The method, then:
Mouse Embryonic teratocarcinoma cells were obtained from the American Type Culture Collection (ATCC, Bethesda, Md.); an initial control batch was a kind gift of Dr. Roi Atlas and Professor Irith Ginzburg, the Weizmann Institute of Science, Rehovot, Israel. P19 cells were grown in minimal essential medium (alpha-MEM) containing 5% fetal calf serum, 100 U/ml penicillin and 0.1 mg/ml streptomycin (Biological Industries, Beit Haemek, Israel) in a 5% CO2 incubator at 37° C. […]
Samples with same amount of total RNA were used to synthesize single-strand cDNA with SuperScript […] RNase H Reverse Transcriptase (Invitrogen, Carlsbad, Calif., USA) and a random hexamers adaptor primer according to the manufacturer's instructions. […] ADNP and ADNP2 expression levels in Schizophrenia were determined using specific primers for human ADNP and ADNP2, and normalized to TATA box binding protein. […] RNA from non-differentiated and differentiated P19 cells was isolated and the expression of tubulin β3 and glial fibrillary acidic protein (GFAP) was determined to confirm neuronal differentiation. ADNP and ADNP2 expression levels in P19 cells were determined using specific primers for mouse ADNP and ADNP2. […] The efficiencies of all primers used were calculated as a precursory step using standard curves, according to the equation: E (efficiency)=10^(−1/slope)−1×100 and were near 100% for all primers. […]

For test [7], the system named is ADNP. The experiment in a line: Transgene shutoff by doxycycline in rTg(tau(P301L))4510 mice, western blots. It counts as in vivo, mouse. Particulars: treated with doxycycline; untreated ratio is 3; FIG. 3D.
Protocol: Nuclear ADNP expression was assessed using mouse monoclonal antibody directed against ADNP (1:300 dilution; BD Bioscience) at 150 KD, actin was used as a control. […] C. […] Tau expression was measured in the cytoplasmic fraction; ADNP was measured in nuclear fractions. D. Western blots showing expression level of ADNP in transgenic and non-transgenic mice after doxycycline treatment.
For test [8], the system named is ADNP. The note with it: 120 min 75% xenon and 25% oxygen vs 75% nitrogen and 25% oxygen; RT-PCR, western blot, immunohistochemistry; cited from earlier work. Background: In western blotting, separated proteins are transferred to a membrane and probed.
The test system of a further test is β-tubulin. The note with it: NAP affinity columns; cited from earlier work.
The subject of another test is cell cultures. Particulars: cited from earlier work.

A value given as a limit tells only on which side of the number the result lay.

For `CC[C@H](C)[C@H](NC(=O)[C@H](CO)NC(=O)[C@@H](NC(=O)[C@@H]1CCCN1C(=O)[C@H](C)NC(=O)[C@@H](N)CC(N)=O)C(C)C)C(=O)N1CCC[C@H]1C(=O)N[C@@H](CCC(N)=O)C(=O)O` [NAP, Asn-Ala-Pro-Val-Ser-Ile-Pro-Gln], the “decrease in phosphorylated tau at Ser202/Thr205 and Thr231 residues” value in the test on phosphorylated tau was 70%. In test [1] (co-incubation with ethanol and NAP), the “percentage of embryos that had begun to close their neural folds” value was “significantly increased”. For the same molecule, the “alcohol-induced serotonergic loss during brain development” value in [1] (in vivo, caudal raphe) is listed as “protected”. Also, in [2], the “UCSD Performance-based Skills Assessment (UPSA) test, secondary endpoint” value is “statistically significant positive treatment effect”; the “tests that measured visual learning and working memory” value is reported as “Numerical positive treatment effects”; the verbal learning result is “favoring placebo”. The “dendritic and axonal growth or branching, density of synaptic structures” value in test [3] (SNAP-25 and synaptophysin staining) is reported as “significantly increased”. Besides, the CREB phosphorylation entry in [3] is reported as “increase”. The “activity of ERK and Akt” value in test [3] (time-dependent) was “significantly stimulated”. Besides, the “microtubule depolymerization by nocodazole” value in the test with astrocytes or neurons (neurons) is recorded as “reversed”. Besides, the “tubulin zinc sheet formation and cell death” value in the test with astrocytes or neurons (treatment with zinc chloride) is recorded as “protected”. Further, the “cognitive tests that primarily assessed attention and working memory function” value in the test with amnestic MCI is on record as “general pattern of improvement”. The “binding to known cell surface receptors” value in [4] is “did not reveal any significant binding”. For the same molecule, in the test with tau transgenic mice, the short-term memory result is listed as “improving”; the “tau phosphorylation and "NFTs"” value was “reduced”. Besides, the cancer cell division result in the test with cancer cell division is on record as “does not affect”. Moreover, in the test with ADNP+/- mice (0.5 μg/mouse/day), the cognitive deficits result is reported as “partially ameliorated” and the tau hyperphosphorylation entry was “reduced”. In the test with ADNP+/- mice (NAP treatment), the “amount of active GSK-3β” value is on record as “reduced”. Moreover, the “reduction of fluorescence staining” value with anti-ADNP (NAP) antibody is recorded as over 80%. The neurite outgrowth result in test [5] is on record as “induced neurite outgrowth”. In test [6] (cerebellar granule neurons, via Fyn kinase and Cas phosphorylation), the axon outgrowth result was “potentiated axon outgrowth”. Besides, in the test on STOP+/- mice, the object recognition result is recorded as “significantly improved to STOP+/+ performance level”, the “open field locomotor activity” value is listed as “significantly decreased” and the spatial memory entry is reported as “ameliorated”.

Regarding `CCO` [ethanol], the IC50 in test [6] (by inhibiting NAP activation of Fyn kinase and Cas, read-out: IC(50), block of NAP-mediated axon outgrowth) was 17 mM.

As for `CC1=C(/C=C/C(C)=C/C=C/C(C)=C/C(=O)O)C(C)(C)CCC1` [RA, all-trans retinoic acid], in the test on P19 cells, the “glial fibrillar acidic protein (GFAP) expression, Q-PCR” value is listed as “up-regulation” and the “tubulinβ3 expression, Q-PCR” value is “up-regulation”.

In the case of `C[C@H]1c2cccc(O)c2C(=O)C2=C(O)[C@]3(O)C(=O)C(C(N)=O)=C(O)[C@@H](N(C)C)[C@@H]3[C@@H](O)[C@@H]21` [doxycycline], in the test on ADNP [7], the “ADNP protein expression ratio between the Tg and non-Tg mice” value came out at 1.

`[Xe]` [xenon]: the “ADNP expression in neonatal rat brain” value in the test on ADNP [8] was “differentially expressed”.

Turning to `CC(=O)O[C@H]1C(=O)[C@@]2(C)[C@H]([C@H](OC(=O)c3ccccc3)[C@]3(O)C[C@H](OC(=O)[C@H](O)[C@@H](NC(=O)c4ccccc4)c4ccccc4)C(C)=C1C3(C)C)[C@]1(OC(C)=O)CO[C@@H]1C[C@@H]2O` [paclitaxel], in the test on β-tubulin, the NAP-tubulin interaction result is on record as “reduced”.

B1: recombinant ADNP: recombinant activity-dependent neuroprotective protein (protein, UniProt Q9H2P0 1-1102, looked up)
Activity-dependent …: MFQLPVNNLGSLRKARKTVKKILSDIGLEYCKEHIEDFKQFEPNDFYLKNTTWEDVGLWDPSLTKNQDYRTKPFCCSACPFSSKFFSAYKSHFRNVHSEDFENRILLNCPYCTFNADKKTLETHIKIFHAPNASAPSSSLSTFKDKNKNDGLKPKQADSVEQAVYYCKKCTYRDPLYEIVRKHIYREHFQHVAAPYIAKAGEKSLNGAVPLGSNAREESSIHCKRCLFMPKSYEALVQHVIEDHERIGYQVTAMIGHTNVVVPRSKPLMLIAPKPQDKKSMGLPPRIGSLASGNVRSLPSQQMVNRLSIPKPNLNSTGVNMMSSVHLQQNNYGVKSVGQGYSVGQSMRLGLGGNAPVSIPQQSQSVKQLLPSGNGRSYGLGSEQRSQAPARYSLQSANASSLSSGQLKSPSLSQSQASRVLGQSSSKPAAAATGPPPGNTSSTQKWKICTICNELFPENVYSVHFEKEHKAEKVPAVANYIMKIHNFTSKCLYCNRYLPTDTLLNHMLIHGLSCPYCRSTFNDVEKMAAHMRMVHIDEEMGPKTDSTLSFDLTLQQGSHTNIHLLVTTYNLRDAPAESVAYHAQNNPPVPPKPQPKVQEKADIPVKSSPQAAVPYKKDVGKTLCPLCFSILKGPISDALAHHLRERHQVIQTVHPVEKKLTYKCIHCLGVYTSNMTASTITLHLVHCRGVGKTQNGQDKTNAPSRLNQSPSLAPVKRTYEQMEFPLLKKRKLDDDSDSPSFFEEKPEEPVVLALDPKGHEDDSYEARKSFLTKYFNKQPYPTRREIEKLAASLWLWKSDIASHFSNKRKKCVRDCEKYKPGVLLGFNMKELNKVKHEMDFDAEWLFENHDEKDSRVNASKTADKKLNLGKEDDSSSDSFENLEEESNESGSPFDPVFEVEPKISNDNPEEHVLKVIPEDASESEEKLDQKEDGSKYETIHLTEEPTKLMHNASDSEVDQDDVVEWKDGASPSESGPGSQQVSDFEDNTCEMKPGTWSDESSQSEDARSSKPAAKKKATMQGDREQLKWKNSSYGKVEGFWSKDQSQWKNASENDERLSNPQIEWQNSTIDSEDGEQFDNMTDGVAEPMHGSLAGVKLSSQQA
As to B1, the “protection against severe oxidative stress and Aβ toxicity” value in the test on cell cultures is reported as “potent protection”.
